Assays:
Format in all cases: biochemical
MASP-2 (CCP1-CCP2-SP) = biological target: T1, MASP-2 (CCP1-CCP2-SP) (Homo sapiens, UniProt O00187); test: Enzymatic assay for MASP-2 inhibitory activity (fluorogenic substrate); conditions: room temperature, 20 mM Hepes pH 7.4, 20 min
T1 construct: 15 μL of Enzyme MASP-2 (CCP1-CCP2-SP) in Assay Buffer
Procedure, shortened: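 Human MASP-2 CCP1-CCP2-SP construct with a C2-cleavage-site fluorogenic substrate in 20 mM HEPES pH 7.4, 140 mM NaCl, 0.1% Tween 20, 20 min at room temperature before acetic acid stop. Activity normalised to DMSO and no-enzyme controls; IC50 taken as equivalent to Ki under linear conditions.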

human a-thrombin = biological target: T2, human a-thrombin (Homo sapiens, UniProt P00734); test: Enzymatic assay for thrombin (fluorogenic peptide substrate Boc-VPR-AMC); conditions: room temperature, 20 mM Hepes pH 7.4, 20 min
T2 construct: enzyme (human a-thrombin (BioPharm® Lab.)); purchased BioPharm Lab
Procedure, shortened: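 Human α-thrombin was incubated with serially diluted compound and fluorogenic substrate Boc-VPR-AMC in 20 mM Hepes pH 7.4, 140 mM NaCl, 0.1% Tween 20 at room temperature. The reaction was stopped after 20 min with 0.1 M acetic acid and fluorescence read. % activity was normalized to DMSO and no-enzyme controls, and IC50 was taken as equivalent to Ki.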

[1] = tested on: Lectin Pathway Activation (LPA) in human serum; test: Lectin pathway activation (LPA) assay in human serum, C4 deposition on mannan-coated plate; conditions: 1% pooled human serum, 55 minutes, room temperature
Experimental: A Microtiter ELISA plate (Nunc-Maxi Sorp; Sigma-Aldrich®, USA) was coated with mannan sourced from Saccharomyces cerevisiae (Sigma-Aldrich®, USA) in a coating buffer comprising 33.3 mM Na2CO3 and 166.67 mM NaHCO3. The plates were incubated at room temperature overnight. Subsequently, the plates were blocked with a 5% bovine serum albumin solution (Sigma-Aldrich®, USA) prepared in PBST for 2 hours at room temperature with agitation. Varying concentrations of MASP-2 inhibitors were dispensed onto the empty plate.
To perform the assay, pooled human serum was diluted to 1% in a solution of 20 mM HEPES (pH=7.4), 140 mM NaCl, and 1 mM MgCl2. Then, 40 μl of the diluted human serum was dispensed into each well of the Microtiter ELISA plate and incubated for 55 minutes at room temperature. The C4 deposition on the mannan-coated surface was stopped using an EDTA stop solution (20 mM HEPES, pH=7.4, 140 mM NaCl, and 150 mM EDTA). Subsequently, rabbit anti-Human C4c antibody (Agilent Technologies, USA) prepared in PBST was added, and the plates were incubated at room temperature for 30 minutes with agitation, then washed with PBST, and Goat anti-rabbit IgG(H+L) HRP-conjugated (Southern Biotech®, USA) was added. The plates were again incubated at room temperature for 30 minutes with agitation, and then were washed with PBST. Following this, the Amplex® UltraRed® (Thermo Fischer Sci, USA) substrate solution was added for 16 minutes, followed by the addition of the Amplex® UltraRed® stop solution. The plates' fluorescence was measured using an i3× microplate reader (Molecular Devices, USA) with excitation at 550 nm and emission at 580 nm. The raw data generated from the plate reader was exported to GraphPad Prism® (version 10.0.3), and the non-linear regression curve was generated using the 4-parameter logistic fit equation. All data are reported as pIC50 with a 95% confidence interval.

T1 sequence (O00187 287-686 limits assumed): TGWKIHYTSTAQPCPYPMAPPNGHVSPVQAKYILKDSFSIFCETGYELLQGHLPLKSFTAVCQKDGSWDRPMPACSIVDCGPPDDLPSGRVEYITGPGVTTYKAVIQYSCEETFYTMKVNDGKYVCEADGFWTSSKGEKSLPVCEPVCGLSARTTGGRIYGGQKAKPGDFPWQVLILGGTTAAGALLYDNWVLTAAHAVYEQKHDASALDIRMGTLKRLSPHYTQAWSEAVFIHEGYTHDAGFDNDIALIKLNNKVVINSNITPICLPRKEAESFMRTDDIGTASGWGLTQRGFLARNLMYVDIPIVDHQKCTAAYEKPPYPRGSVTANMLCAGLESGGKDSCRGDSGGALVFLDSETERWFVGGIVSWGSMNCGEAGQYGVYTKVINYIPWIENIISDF

Ki (MASP-2 (CCP1-CCP2-SP))	Ki (human a-thrombin)	IC50 [1]	Structure (SMILES)
< 500 nM	500 to 2500 nM	< 500 nM	Cc1nc(N)ccc1CNC(=O)[C@@H]1CCc2ncc(NCc3cccc(F)c3)c(=O)n21 [Compound 53, (S)—N-((6-amino-2-methylpyridin-3-yl)methyl)-3-((3-fluorobenzyl)amino)-4-oxo-4,6,7,8-tetrahydropyrrolo[1,2-a]pyrimidine-6-carboxamide]
< 500 nM	500 to 2500 nM	< 500 nM	Cc1ccccc1CNc1cnc2n(c1=O)[C@H](C(=O)NCc1ccc(N)nc1C)CC2 [Compound 54, (S)—N-((6-amino-2-methylpyridin-3-yl)methyl)-3-((2-methylbenzyl)amino)-4-oxo-4,6,7,8-tetrahydropyrrolo[1,2-a]pyrimidine-6-carboxamide]
< 500 nM	2500 to 10000 nM	< 500 nM	Cc1cc(F)ccc1CNc1cnc2n(c1=O)[C@H](C(=O)NCc1ccc(N)nc1C)CC2 [Compound 62]
< 500 nM	10000 to 25000 nM	< 500 nM	Cc1cc(C)cc(CNc2cnc3n(c2=O)[C@H](C(=O)N[C@H](C)c2ccc(N)nc2C)CC3)c1 [Compound 64, (S)-N-((R)-1-(6-amino-2-methylpyridin-3-yl)ethyl)-3-((3,5-dimethylbenzyl)amino)-4-oxo-4,6,7,8-tetrahydropyrrolo[1,2-a]pyrimidine-6-carboxamide]
< 500 nM	> 25000 nM	< 500 nM	Cc1cc(Cl)cc(CNc2cnc3n(c2=O)[C@H](C(=O)NCc2cnc4c(c2)CNC4)CC3)c1 [Compound 65, (S)-3-((3-chloro-5-methylbenzyl)amino)-N-((6,7-dihydro-5H-pyrrolo[3,4-b]pyridin-3-yl)methyl)-4-oxo-4,6,7,8-tetrahydropyrrolo[1,2-a]pyrimidine-6-carboxamide, di-trifluoroacetate]
< 500 nM	500 to 2500 nM	< 500 nM	Cc1ccc(CNc2cnc3n(c2=O)[C@H](C(=O)NCc2ccc(N)nc2C)CC3)cc1C [Compound 72, (S)-N-((6-amino-2-methylpyridin-3-yl)methyl)-3-((3,4-dimethylbenzyl)amino)-4-oxo-4,6,7,8-tetrahydropyrrolo[1,2-a]pyrimidine-6-carboxamide]
< 500 nM	500 to 2500 nM	< 500 nM	Cc1nc(N)ccc1CNC(=O)[C@@H]1CCc2ncc(NCc3cccc(OC(F)F)c3)c(=O)n21 [Compound 75, (S)-N-((6-amino-2-methylpyridin-3-yl)methyl)-3-((3-(difluoromethoxy)benzyl)amino)-4-oxo-4,6,7,8-tetrahydro-pyrrolo[1,2-a]pyrimidine-6-carboxamide]
< 500 nM	10000 to 25000 nM	< 500 nM	COc1cc(Cl)cc(CNc2cnc3n(c2=O)[C@H](C(=O)N[C@H](C)c2ccc(N)nc2)CC3)c1 [Compound 76, (S)-N-((R)-1-(6-aminopyridin-3-yl)ethyl)-3-((3-chloro-5-methoxybenzyl)amino)-4-oxo-4,6,7,8-tetrahydropyrrolo[1,2-a]pyrimidine-6-carboxamide]
< 500 nM	500 to 2500 nM	< 500 nM	Cc1cc(C)cc(CNc2cnc3n(c2=O)[C@H](C(=O)N[C@@H]2CCc4nc(N)ccc42)CC3)c1 [Compound 81, (S)—N—((R)-2-amino-6,7-dihydro-5H-cyclopenta[b]pyridin-5-yl)-3-((3,5-dimethylbenzyl)amino)-4-oxo-4,6,7,8-tetrahydropyrrolo[1,2-a]pyrimidine-6-carboxamide]
< 500 nM	500 to 2500 nM	< 500 nM	Cc1cccc(CNc2cnc3n(c2=O)[C@H](C(=O)N[C@@H]2CCc4nc(N)ccc42)CC3)c1 [Compound 82, (S)—N—((R)-2-amino-6,7-dihydro-5H-cyclopenta[b]pyridin-5-yl)-3-((3-methylbenzyl)amino)-4-oxo-4,6,7,8-tetrahydropyrrolo[1,2-a]pyrimidine-6-carboxamide]

— patent US20240228499A1, “MASP-2 INHIBITORS AND METHODS OF USE” (Omeros Corporation, priority 2022, published 2024)
